From patent US4111955A, “N-Trihalomethanesulfenyl carbamoyloximino di-sulfur heterocyclic compounds” (priority 1976, dated 1978)
Values after ≈ are worked out from the molar mass of the structure shown.

Columns and labels:
[1] = test system: Mexican bean beetle (Epilachna varivestis, Muls.); assay: Mexican Bean Beetle Leaf Spray Test; format: in vivo; parameters: key to pesticidal activity rating, Bean beetle: A: excellent control; B: partial control; C: no control
Protocol: Fourth instar larvae of the Mexican bean beetle (Epilachna varivestis, Muls.), reared on Tendergreen bean plants at a temperature of 80°±5° F. and 50±5 percent relative humidity, were the test insects.
The test compounds were formulated by diluting the stock suspension with water to give a suspension containing 500 parts of test compound per million parts of final formulation. Potted Tendergreen bean plants of standard height and age were placed on a revolving turntable and sprayed with 100-110 milliliters of test compound formulation by use of a DeVilbiss spray gun set at 10 psig air pressure. This application, which lasted 25 seconds, was sufficient to wet plants to run-off. As a control, 100-110 milliliters of a water-acetone-emulsifier solution containing no test compound were also sprayed on infested plants. When dry, the paired leaves were separated and each was placed in a 9 centimeter Petri dish lined with moistened filter paper. Five randomly selected larvae were introduced into each dish, and the dishes were closed. The closed dishes were labeled and held at a temperature of 80°±5° F. for 3 days. Although the larvae could easily consume the leaf within 24 to 48 hours, no more food was added. Larvae which were unable to move the length of the body, even upon stimulation, were considered dead.
(§1) In these tests the pesticidal activity of the compounds against aphid, mite, Southern Armyworm, Bean Beetle and House fly was rated as follows:
(§2) The LD50 values shown in the above Table II were determined by testing the compositions over an appropriate concentration range obtained by serial dilution of the stock suspension with water. The percent kill was plotted on log-probit graph paper versus parts per million concentration, and the LD50 read from an eye-fitted line drawn through the resultant points.

[2] = test system: house flies (Musca domestica, L.); assay: Fly Bait Test; format: in vivo; parameters: key to pesticidal activity rating, Housefly: A: excellent control; B: partial control; C: no control
Protocol: Four to 6 day old adult house flies (Musca domestica, L.), reared according to the specifications of the Chemical Specialities Manufacturing Association (Blue Book, McNair-Dorland Co., N.Y. 1954; pages 243-244, 261) under controlled conditions of 80°±5° F. and 50±5 percent relative humidity, were the test insects. The flies were immobilized by anesthetizing with carbon dioxide and twenty five immobilized individuals, males and females, were transferred to a cage consisting of a standard food strainer about 5 inches in diameter which was inverted over a wrapping-paper-covered surface. The test compounds were formulated by diluting the stock suspension with a 10 percent (by weight) sugar solution to give a suspension containing 500 parts of test compound per million parts of final formulation, by weight. Ten milliliters of the test formulation were added to a souffle cup containing a 1-inch square of an absorbent cotton pad. This bait cup was introduced and centered on the blotting paper under the food strainer prior to admitting the anesthetized flies. The caged flies were allowed to feed on the bait for 24 hours, at a temperature of 80°±5° F. and the relative humidity of 50±5 percent.
as §1, §2

With `CN(SC(Cl)(Cl)Cl)C(=O)ON=C1CSCCS1` [2-[(N-METHYL-N-TRICHLOROMETHANESULFENYL)-CARBAMOYLOXIMINO]-1,4-DITHIANE] the LC50 ([1]; Epilachna varivestis, 72 h, leaf spray, Table II, read-out: Insect Toxicity, LD50, Mexican Bean beetle) was 10 µg/mL (≈ 28.1 µM), the “insect toxicity on bean-beetle relative to the methylcarbamoyl composition” value ([1]; from LD50 values of Table II) was “five-fold improvement” and the “pesticidal activity rating, Bean beetle” value ([1]; leaf spray, 500 parts per million, 3 days) was “A”. The “pesticidal activity rating, Housefly” value ([2]; 500 parts per million, 24 hours) was “A” and the LC50 ([2]; Musca domestica, 24 h, Table II, read-out: Insect Toxicity, LD50, House fly) was 2 µg/mL (≈ 5.62 µM).
